PubChem BioAssay (NCI)
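Cells were grown in 96-well plates and exposed to each compound for 48 hours at five concentrations; endpoints were interpolated linearly between bracketing concentrations, or set to the highest concentration if not reached. TGI marks complete inhibition of growth.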

How the values were obtained:
Experiment in all cases: DTP human tumour cell line panel, 48 h
HL-60(TB) leukemia = test system: HL-60(TB) leukemia
EKVX NSCLC = test system: EKVX NSCLC
MOLT-4 leukemia = test system: MOLT-4 leukemia
OVCAR-3 ovarian = test system: OVCAR-3 ovarian
SK-MEL-28 melanoma = test system: SK-MEL-28 melanoma
SK-MEL-5 melanoma = test system: SK-MEL-5 melanoma
COLO 205 colon = test system: COLO 205 colon
DLD-1 colon = test system: DLD-1 colon
DMS 273 small cell lung = test system: DMS 273 small cell lung
KM12 colon = test system: KM12 colon
NCI-H522 lung = test system: NCI-H522 lung
LOX IMVI melanoma = test system: LOX IMVI melanoma
HCT-15 colon = test system: HCT-15 colon
CCRF-CEM leukemia = test system: CCRF-CEM leukemia
A549 NSCLC = test system: A549 NSCLC
SNB-75 CNS = test system: SNB-75 CNS
SF-539 CNS = test system: SF-539 CNS
HOP-18 NSCLC = test system: HOP-18 NSCLC
OVCAR-5 ovarian = test system: OVCAR-5 ovarian
KM20L2 colon = test system: KM20L2 colon
RXF 393 renal = test system: RXF 393 renal
SF-268 CNS = test system: SF-268 CNS
SK-OV-3 ovarian = test system: SK-OV-3 ovarian
SK-MEL-2 melanoma = test system: SK-MEL-2 melanoma
UACC-62 melanoma = test system: UACC-62 melanoma
HCT-116 colon = test system: HCT-116 colon
SNB-19 CNS = test system: SNB-19 CNS
K-562 leukemia = test system: K-562 leukemia
IGROV1 ovarian = test system: IGROV1 ovarian
LXFL 529 NSCLC = test system: LXFL 529 NSCLC
OVCAR-8 ovarian = test system: OVCAR-8 ovarian
786-0 renal = test system: 786-0 renal
U251 CNS = test system: U251 CNS
M19-MEL melanoma = test system: M19-MEL melanoma
RPMI-8226 leukemia = test system: RPMI-8226 leukemia
HT29 colon = test system: HT29 colon
DMS 114 small cell lung = test system: DMS 114 small cell lung
SW-620 colon = test system: SW-620 colon
SN12C renal = test system: SN12C renal
TK-10 renal = test system: TK-10 renal
HOP-92 NSCLC = test system: HOP-92 NSCLC
XF 498 CNS = test system: XF 498 CNS
M14 melanoma = test system: M14 melanoma
UACC-257 melanoma = test system: UACC-257 melanoma
HCC-2998 colon = test system: HCC-2998 colon
UO-31 renal = test system: UO-31 renal
ACHN renal = test system: ACHN renal
SF-295 CNS = test system: SF-295 CNS
NCI-H23 lung = test system: NCI-H23 lung
HOP-62 NSCLC = test system: HOP-62 NSCLC
SNB-78 CNS = test system: SNB-78 CNS
NCI-H460 lung = test system: NCI-H460 lung
MALME-3M melanoma = test system: MALME-3M melanoma
A498 renal = test system: A498 renal
OVCAR-4 ovarian = test system: OVCAR-4 ovarian
CAKI-1 renal = test system: CAKI-1 renal
NCI-H226 lung = test system: NCI-H226 lung

With `Cc1cc(NS(=O)(=O)c2ccc(NC(=O)c3cccc4c(Nc5ccc(S(=O)(=O)Nc6cc(C)on6)cc5)c5ccc(Cl)cc5nc34)cc2)no1` the TGI (HL-60(TB) leukemia) was greater than 100 µM, the TGI (EKVX NSCLC) was greater than 100 µM and the TGI (MOLT-4 leukemia) was greater than 100 µM. It also gave a TGI (OVCAR-3 ovarian) greater than 100 µM, a TGI (SK-MEL-28 melanoma) greater than 100 µM and a TGI (SK-MEL-5 melanoma) greater than 100 µM. It also gave a TGI (COLO 205 colon) greater than 100 µM, a TGI (DLD-1 colon) greater than 100 µM and a TGI (DMS 273 small cell lung) greater than 100 µM. The TGI (KM12 colon) was greater than 100 µM, the TGI (NCI-H522 lung) was greater than 100 µM and the TGI (LOX IMVI melanoma) was greater than 100 µM. It also gave a TGI (HCT-15 colon) greater than 100 µM, a TGI (CCRF-CEM leukemia) greater than 100 µM and a TGI (A549 NSCLC) greater than 100 µM. For the same compound, the TGI (SNB-75 CNS) was 65.2 µM, the TGI (SF-539 CNS) was greater than 100 µM and the TGI (HOP-18 NSCLC) was greater than 100 µM. For the same compound, the TGI (OVCAR-5 ovarian) was greater than 100 µM, the TGI (KM20L2 colon) was greater than 100 µM and the TGI (RXF 393 renal) was greater than 100 µM. The TGI (SF-268 CNS) was greater than 100 µM, the TGI (SK-OV-3 ovarian) was greater than 100 µM and the TGI (SK-MEL-2 melanoma) was greater than 100 µM. For the same compound, the TGI (UACC-62 melanoma) was greater than 100 µM, the TGI (HCT-116 colon) was 57.5 µM and the TGI (SNB-19 CNS) was 81.8 µM. The TGI (K-562 leukemia) was greater than 100 µM, the TGI (IGROV1 ovarian) was greater than 100 µM and the TGI (LXFL 529 NSCLC) was greater than 100 µM. It also gave a TGI (OVCAR-8 ovarian) greater than 100 µM, a TGI (786-0 renal) greater than 100 µM and a TGI (U251 CNS) greater than 100 µM. The TGI (M19-MEL melanoma) was greater than 100 µM, the TGI (RPMI-8226 leukemia) was greater than 100 µM and the TGI (HT29 colon) was greater than 100 µM. The TGI (DMS 114 small cell lung) was greater than 100 µM, the TGI (SW-620 colon) was greater than 100 µM and the TGI (SN12C renal) was greater than 100 µM. It also gave a TGI (TK-10 renal) greater than 100 µM, a TGI (HOP-92 NSCLC) of 80.5 µM and a TGI (XF 498 CNS) greater than 100 µM. It also gave a TGI (M14 melanoma) greater than 100 µM, a TGI (UACC-257 melanoma) greater than 100 µM and a TGI (HCC-2998 colon) greater than 100 µM. The TGI (UO-31 renal) was 86.3 µM, the TGI (ACHN renal) was greater than 100 µM and the TGI (SF-295 CNS) was greater than 100 µM. For the same compound, the TGI (NCI-H23 lung) was greater than 100 µM, the TGI (HOP-62 NSCLC) was greater than 100 µM and the TGI (SNB-78 CNS) was greater than 100 µM. For the same compound, the TGI (NCI-H460 lung) was greater than 100 µM, the TGI (MALME-3M melanoma) was greater than 100 µM and the TGI (A498 renal) was greater than 100 µM. The TGI (OVCAR-4 ovarian) was greater than 100 µM and the TGI (CAKI-1 renal) was greater than 100 µM.
For `CCCN(CCCC(NC(C)=O)C(=O)NCc1ccccc1)C(=O)N(C)N=O` (centres undefined), the TGI (EKVX NSCLC) was greater than 100 µM, the TGI (MOLT-4 leukemia) was greater than 100 µM and the TGI (OVCAR-3 ovarian) was greater than 100 µM. For the same compound, the TGI (SK-MEL-28 melanoma) was greater than 100 µM, the TGI (SK-MEL-5 melanoma) was greater than 100 µM and the TGI (COLO 205 colon) was greater than 100 µM. It also gave a TGI (DLD-1 colon) greater than 100 µM, a TGI (DMS 273 small cell lung) greater than 100 µM and a TGI (KM12 colon) greater than 100 µM. The TGI (NCI-H522 lung) was greater than 100 µM, the TGI (LOX IMVI melanoma) was greater than 100 µM and the TGI (HCT-15 colon) was greater than 100 µM. The TGI (CCRF-CEM leukemia) was greater than 100 µM, the TGI (A549 NSCLC) was greater than 100 µM and the TGI (SNB-75 CNS) was greater than 100 µM. It also gave a TGI (NCI-H226 lung) greater than 100 µM, a TGI (SF-539 CNS) greater than 100 µM and a TGI (OVCAR-5 ovarian) greater than 100 µM. It also gave a TGI (KM20L2 colon) greater than 100 µM, a TGI (RXF 393 renal) greater than 100 µM and a TGI (SF-268 CNS) greater than 100 µM. It also gave a TGI (SK-OV-3 ovarian) greater than 100 µM, a TGI (SK-MEL-2 melanoma) greater than 100 µM and a TGI (UACC-62 melanoma) greater than 100 µM. It also gave a TGI (HCT-116 colon) greater than 100 µM, a TGI (K-562 leukemia) greater than 100 µM and a TGI (IGROV1 ovarian) greater than 100 µM. It also gave a TGI (LXFL 529 NSCLC) greater than 100 µM, a TGI (OVCAR-8 ovarian) greater than 100 µM and a TGI (786-0 renal) greater than 100 µM. The TGI (U251 CNS) was greater than 100 µM, the TGI (M19-MEL melanoma) was greater than 100 µM and the TGI (RPMI-8226 leukemia) was greater than 100 µM. The TGI (HT29 colon) was greater than 100 µM, the TGI (DMS 114 small cell lung) was greater than 100 µM and the TGI (SW-620 colon) was greater than 100 µM. For the same compound, the TGI (SN12C renal) was greater than 100 µM, the TGI (TK-10 renal) was greater than 100 µM and the TGI (HOP-92 NSCLC) was greater than 100 µM. It also gave a TGI (XF 498 CNS) greater than 100 µM, a TGI (M14 melanoma) greater than 100 µM and a TGI (UACC-257 melanoma) greater than 100 µM. The TGI (HCC-2998 colon) was greater than 100 µM, the TGI (ACHN renal) was greater than 100 µM and the TGI (SF-295 CNS) was greater than 100 µM. The TGI (NCI-H23 lung) was greater than 100 µM, the TGI (HOP-62 NSCLC) was greater than 100 µM and the TGI (SNB-78 CNS) was greater than 100 µM. It also gave a TGI (NCI-H460 lung) greater than 100 µM, a TGI (MALME-3M melanoma) greater than 100 µM and a TGI (A498 renal) greater than 100 µM. It also gave a TGI (OVCAR-4 ovarian) greater than 100 µM and a TGI (CAKI-1 renal) greater than 100 µM.
